Laboratory results reported in PubChem BioAssay (NCI).
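Protocol summary: plate cells (96-well), add compound at 5 concentrations, incubate 48 h, interpolate endpoints linearly. At the GI50, growth is halved. TGI is the concentration that stops growth completely.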

Experiments:
Test in all cases: NCI-60 cell line screen, 48 h
HCT-15 colon = test system: HCT-15 colon
PC-3 prostate = test system: PC-3 prostate
SF-295 CNS = test system: SF-295 CNS
HCT-116 colon = test system: HCT-116 colon
SNB-75 CNS = test system: SNB-75 CNS
OVCAR-3 ovarian = test system: OVCAR-3 ovarian
NCI-H522 lung = test system: NCI-H522 lung
LOX IMVI melanoma = test system: LOX IMVI melanoma
NCI-H460 lung = test system: NCI-H460 lung
IGROV1 ovarian = test system: IGROV1 ovarian
A498 renal = test system: A498 renal
NCI/ADR-RES ovarian = test system: NCI/ADR-RES ovarian
COLO 205 colon = test system: COLO 205 colon
HS 578T breast = test system: HS 578T breast
SF-268 CNS = test system: SF-268 CNS
SR leukemia = test system: SR leukemia
NCI-H23 lung = test system: NCI-H23 lung
KM12 colon = test system: KM12 colon
M14 melanoma = test system: M14 melanoma
BT-549 breast = test system: BT-549 breast
HOP-62 NSCLC = test system: HOP-62 NSCLC
SW-620 colon = test system: SW-620 colon
HCC-2998 colon = test system: HCC-2998 colon
MOLT-4 leukemia = test system: MOLT-4 leukemia
SK-OV-3 ovarian = test system: SK-OV-3 ovarian
CCRF-CEM leukemia = test system: CCRF-CEM leukemia
A549 NSCLC = test system: A549 NSCLC
TK-10 renal = test system: TK-10 renal
U251 CNS = test system: U251 CNS
MDA-MB-231 breast = test system: MDA-MB-231 breast
SNB-19 CNS = test system: SNB-19 CNS
SN12C renal = test system: SN12C renal
HT29 colon = test system: HT29 colon
786-0 renal = test system: 786-0 renal
SK-MEL-2 melanoma = test system: SK-MEL-2 melanoma
UACC-257 melanoma = test system: UACC-257 melanoma
T-47D breast = test system: T-47D breast
MCF7 breast = test system: MCF7 breast
DU-145 prostate = test system: DU-145 prostate
SK-MEL-5 melanoma = test system: SK-MEL-5 melanoma
HOP-92 NSCLC = test system: HOP-92 NSCLC
RPMI-8226 leukemia = test system: RPMI-8226 leukemia
ACHN renal = test system: ACHN renal
UACC-62 melanoma = test system: UACC-62 melanoma
UO-31 renal = test system: UO-31 renal
HL-60(TB) leukemia = test system: HL-60(TB) leukemia
MDA-MB-435 = test system: MDA-MB-435

C=C1C(=O)O[C@H]2[C@H]1CC/C(COC(=O)CCCC(=O)OC/C1=C/CC[C@@]3(C)O[C@H]3[C@H]3OC(=O)C(=C)[C@@H]3CC1)=C\CC[C@@]1(C)O[C@@H]21
GI50 (HCT-15 colon): 814 nM | TGI (HCT-15 colon): 2350 nM | GI50 (PC-3 prostate): 2860 nM | TGI (PC-3 prostate): 8370 nM | GI50 (SF-295 CNS): 4710 nM | TGI (SF-295 CNS): > 100000 nM | GI50 (HCT-116 colon): 1290 nM | TGI (HCT-116 colon): 2570 nM | GI50 (SNB-75 CNS): 2840 nM | TGI (SNB-75 CNS): > 100000 nM | GI50 (OVCAR-3 ovarian): 401 nM | TGI (OVCAR-3 ovarian): 1520 nM | GI50 (NCI-H522 lung): 678 nM | TGI (NCI-H522 lung): 2340 nM | GI50 (LOX IMVI melanoma): 1040 nM | TGI (LOX IMVI melanoma): 2310 nM | GI50 (NCI-H460 lung): 3180 nM | TGI (NCI-H460 lung): 12700 nM | GI50 (IGROV1 ovarian): 1660 nM | TGI (IGROV1 ovarian): 4540 nM | GI50 (A498 renal): 5580 nM | TGI (A498 renal): 19000 nM | GI50 (NCI/ADR-RES ovarian): 4630 nM | TGI (NCI/ADR-RES ovarian): > 100000 nM | GI50 (COLO 205 colon): 592 nM | TGI (COLO 205 colon): 2150 nM | GI50 (HS 578T breast): 3420 nM | TGI (HS 578T breast): > 100000 nM | GI50 (SF-268 CNS): 2770 nM | TGI (SF-268 CNS): 15100 nM | GI50 (SR leukemia): 501 nM | TGI (SR leukemia): 3450 nM | GI50 (NCI-H23 lung): 2280 nM | TGI (NCI-H23 lung): 6670 nM | GI50 (KM12 colon): 2240 nM | TGI (KM12 colon): 6850 nM | GI50 (M14 melanoma): 1720 nM | TGI (M14 melanoma): 4510 nM | GI50 (BT-549 breast): 1370 nM | TGI (BT-549 breast): 2950 nM | GI50 (HOP-62 NSCLC): 3310 nM | TGI (HOP-62 NSCLC): 16000 nM | GI50 (SW-620 colon): 608 nM | TGI (SW-620 colon): 2040 nM | GI50 (HCC-2998 colon): 2070 nM | TGI (HCC-2998 colon): 4220 nM | GI50 (MOLT-4 leukemia): 396 nM | TGI (MOLT-4 leukemia): 2070 nM | GI50 (SK-OV-3 ovarian): 9890 nM | TGI (SK-OV-3 ovarian): > 100000 nM | GI50 (CCRF-CEM leukemia): 281 nM | TGI (CCRF-CEM leukemia): 757 nM | GI50 (A549 NSCLC): 4460 nM | TGI (A549 NSCLC): 41700 nM | GI50 (TK-10 renal): 1530 nM | TGI (TK-10 renal): 3040 nM | GI50 (U251 CNS): 2920 nM | TGI (U251 CNS): 10300 nM | GI50 (MDA-MB-231 breast): 1390 nM | TGI (MDA-MB-231 breast): 2900 nM | GI50 (SNB-19 CNS): 2910 nM | TGI (SNB-19 CNS): 14400 nM | GI50 (SN12C renal): 2300 nM | TGI (SN12C renal): 6920 nM | GI50 (HT29 colon): 752 nM | TGI (HT29 colon): 2160 nM | GI50 (786-0 renal): 1350 nM | TGI (786-0 renal): 2790 nM | GI50 (SK-MEL-2 melanoma): 2180 nM | TGI (SK-MEL-2 melanoma): 6500 nM | GI50 (UACC-257 melanoma): 2000 nM | TGI (UACC-257 melanoma): 4970 nM | GI50 (T-47D breast): 1190 nM | TGI (T-47D breast): 3810 nM | GI50 (MCF7 breast): 500 nM | TGI (MCF7 breast): 2430 nM | GI50 (DU-145 prostate): 1450 nM | TGI (DU-145 prostate): 2770 nM | GI50 (SK-MEL-5 melanoma): 2250 nM | TGI (SK-MEL-5 melanoma): 5680 nM | GI50 (HOP-92 NSCLC): 1870 nM | TGI (HOP-92 NSCLC): 3650 nM | GI50 (RPMI-8226 leukemia): 362 nM | TGI (RPMI-8226 leukemia): 1500 nM | GI50 (ACHN renal): 764 nM | TGI (ACHN renal): 2030 nM | GI50 (UACC-62 melanoma): 1540 nM | TGI (UACC-62 melanoma): 4530 nM | GI50 (UO-31 renal): 1110 nM | TGI (UO-31 renal): 2310 nM | GI50 (HL-60(TB) leukemia): 274 nM | TGI (HL-60(TB) leukemia): 1390 nM | GI50 (MDA-MB-435): 1690 nM | TGI (MDA-MB-435): 5180 nM
